Data from patent US20030108526A1, “Microorganisms for use in the measurement of environmental factors” (priority 2001, published 2003).

Key:
[1] = test system: cps::lacZ (β-galactosidase) expression in E. coli KMI001; experiment: Examination of biosensor function: IPTG-induced sensor E. coli or its supernatant with receptor-transferred marker E. coli; assay type: cell-based, Escherichia coli; settings: 1 mM IPTG, Examples 6 and 7
From the text: (§1) The next day, the color of each colony was observed.
as §1

[2] = target: AHK4 (Arabidopsis thaliana, UniProt Q9C5U0); settings: experimental conditions of Example 4; Plant Cell Physiol 2001, 42: 107-113; cited from earlier work
[3] = test system: ZmHK1; experiment: Cytokinin sensor function and sensitivity of ZmHK1 in E. coli KMI001 (colony color on LAGX agar); assay type: cell-based, maize
From the text: The protein coding region of pZmHK1 was amplified by PCR and ligated to the BamHI/BSalI site of pIN-IIIΔEH plasmid. Primer sequences used in the PCR amplification are as described below.
Plasmid pIN-IIIΔEH has a promoter that constitutively directs weak expression of a foreign gene in E. coli. The resultant plasmid was designated pIN-III-ZmHK.
The constructed plasmid was transformed into E. coli KMI001 [ΔrcsC, cps::lacZ]. This E. coli strain is a strain in which cps gene involved in polysaccharide synthesis and a binary regulatory factor consisting of rcsC-rcsB (an expression regulatory system for cps) are partially modified. Specifically, sensor histidine kinase gene rcsC is deleted, and β-galactosidase (a marker gene) is inserted downstream of the promoter of cps gene. The resultant transformant was cultured in 2 ml of LAG liquid medium (1% Bacto tryptone, 0.5% Bacto yeast extract, 1% NaCl, 40 mM glucose, 50 mM phosphate buffer, pH 7.0) overnight at 25° C. The resultant culture broth was centrifuged and the supernatant was discarded. The E. coli cell pellet was washed twice in sterilized water and suspended in 2 ml (final volume) of sterilized water. This suspension was spotted at two points each on LAGX agar medium (1% Bacto tryptone, 0.5% Bacto yeast extract, 1% NaCl, 40 mM glucose, 50 mM phosphate buffer, pH 7.0, 80 μg/ml X-gal, 1.5% agarose) containing 1 μM trans-zeatin (t-zeatin) and on LAGX agar medium not containing t-zeatin, and cultured overnight (12 hr) at 25° C. The next day, the color of each colony was observed.
E. coli suspension was prepared in the same manner as in Example 4. Subsequently, the suspension was spotted on LAGX agar medium containing t-zeatin at varied concentrations from 0 nM to 1000 nM, and cultured overnight (12 hr) at 25° C. The next day, the color of each colony was observed.

AHK4, sequence (Q9C5U0 whole entry): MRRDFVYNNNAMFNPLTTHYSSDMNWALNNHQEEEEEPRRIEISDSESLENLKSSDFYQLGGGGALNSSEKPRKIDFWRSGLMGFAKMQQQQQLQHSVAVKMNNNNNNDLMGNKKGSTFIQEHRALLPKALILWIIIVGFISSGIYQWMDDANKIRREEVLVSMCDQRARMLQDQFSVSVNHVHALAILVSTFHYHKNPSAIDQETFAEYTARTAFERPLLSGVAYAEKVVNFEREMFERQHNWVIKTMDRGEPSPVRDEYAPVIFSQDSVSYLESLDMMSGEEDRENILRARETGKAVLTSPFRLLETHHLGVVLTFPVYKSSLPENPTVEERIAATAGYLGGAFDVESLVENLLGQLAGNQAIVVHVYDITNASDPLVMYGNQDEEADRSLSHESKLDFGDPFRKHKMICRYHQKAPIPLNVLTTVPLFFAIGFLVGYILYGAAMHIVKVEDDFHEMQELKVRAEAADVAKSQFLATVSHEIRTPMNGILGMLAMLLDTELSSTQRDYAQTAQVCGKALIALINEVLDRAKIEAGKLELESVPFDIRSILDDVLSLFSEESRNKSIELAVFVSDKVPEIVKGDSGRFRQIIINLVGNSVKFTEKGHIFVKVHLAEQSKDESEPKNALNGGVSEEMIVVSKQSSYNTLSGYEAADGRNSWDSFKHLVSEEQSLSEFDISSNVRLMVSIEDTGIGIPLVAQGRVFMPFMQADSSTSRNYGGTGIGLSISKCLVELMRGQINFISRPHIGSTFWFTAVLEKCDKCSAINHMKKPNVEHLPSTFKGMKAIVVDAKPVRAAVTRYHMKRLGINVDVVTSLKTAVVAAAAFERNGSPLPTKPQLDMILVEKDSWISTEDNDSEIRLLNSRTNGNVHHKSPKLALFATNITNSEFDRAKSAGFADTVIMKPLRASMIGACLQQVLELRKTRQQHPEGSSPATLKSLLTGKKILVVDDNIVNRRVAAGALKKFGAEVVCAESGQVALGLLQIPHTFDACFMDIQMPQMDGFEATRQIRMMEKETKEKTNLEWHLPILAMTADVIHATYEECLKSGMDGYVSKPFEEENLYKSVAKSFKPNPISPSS

Molecule | Biosensor response (blue colony color) of receptor-transferred transformant to IPTG [1] | lowest t-zeatin concentration to which AHK4-transferred E. coli is able to respond [2] | β-galactosidase expression of ZmHK1-transferred E. coli in response to the cytokinin in the medium ([3]; 1 μM t-zeatin in LAGX agar, 12 hr, 25° C.) | t-zeatin concentration to which ZmHK1-transferred E. coli responds ([3]; LAGX agar with 0 nM to 1000 nM t-zeatin, 12 hr, 25° C.) [µM] | ability to perceive cytokinins compared to that of AHK4 [3] | color development of transferred E. coli spot compared with AHK4-transferred E. coli spots ([3]; FIG. 1, 1 μM t-zeatin)
AHK4: Arabidopsis thaliana cytokinin receptor (sensor protein) | did not present a blue color |  |  |  |  | 
C/C(=C\CNc1ncnc2nc[nH]c12)CO [t-zeatin, trans-zeatin] |  | approx. 50 nM | expressed β-galactosidase | ≤ 10 |  | 
ZmHK1: maize cytokinin receptor, 974 amino acids, SEQ ID NO: 2 (protein, Zea mays) MGGKYRAARTKRWWRGLAAAGWVLTAVVCSAVMHWTLRRDSMDRAEERLVSMCEERARMLQEQFGVTVNHVHAIAILISTFNFEKSPPAIDQDTFAKYTARTSFERPLLNGVAFAQRVFHHEREMFESQQGWVMNTMQREPAPPQVEYAPVIFSQDTVSYLARIDMMSGEEDRENIFRARTTGKAVLTNPFRLLGSNHLGVVLTFAVYRPDLPADASVEQRVEATIGYLGGAFDVESLVENLLSKLAGNQDIVVNVYDVTNASDAMVLYGPSSLDEQVPFLHVSMLDFGDPFRKHEMRCRYRQKLPMPWSAITNPLGTFVIWMLLGYSIAAAYSRYDKVTEDCRKMEELKTQAEAADVAKSQFLATASHEIRTPMNGVLGMLDMLLGTDLTMTQKDYAQTAQMCGRALITLINDVLDRAKIEAGKLELEAVPFDLRSLMDDVVSLFSSKSREKCIELAVFVCDNVPKVVIGDPWRFRQILTNLVGNAVKFTERGHVFVRVCLAENSNMEANQVLHGAMNGKGGRVESTANGAFNTLSGFEAADRRNSWQYFKLLLSDKESLLDDLESENSNQSDSDRVTLAISIEDTGVGIPLQAQDRVFTPFMQADSSTSRNYGGTGIGLSISKCLAELMGGQISFTSHPSVGSTFTFSATLKHSHKDISGDSSRSLTEALPTAFKGMKAILVDGRPVRSAVTRYHLKRLGILLQVVNNMNAVVKAFPGQNGAAGSREKASILFIESDFWRPETDVQLLNHLREQKNGQLSDGHKVVLLVTSEADKDKYGSIFDIVMCKPIRASTIASSIQQLLKVEIAERKDNQNRPSFLRSLLVGKNILVVDDNKVNLRVAAAALKKYGANVSCVESGKDAISLLQPPHRFDACFMDVQMPEMDGFEATGQIRQMELKANEERKNKLASIEGSTTAEYHLPVLAMTADVIQATYEECIKSGMDGYVSKPFDEEQLYQAVSRLVVGTTDSAV | discriminated the presence or absence of a specific substance |  |  |  | approximately 10 fold | more intensive color development
